Source: publication PMC12817916, “A small-molecule HSP90 inhibitor, NVP-HSP990, alleviates rotavirus infection” (Journal of Virology, 2025)

How the values were obtained:
[1] = test system: tight junctions (ZO-1, ZO-2, claudin-1) in Caco-2 cells; experiment: Tight junction-associated proteins and structure (WB, IFA); assay type: cell-based, Human; details: Wa or SA11 MOI = 3, 100 nM
Description: The cells were then washed with PBS, fixed in 4% paraformaldehyde for 20 min, followed by permeabilization in 0.5% Triton X-100 for 10 min and blocking with 5% BSA (Beyotime, China) for 1 h at room temperature. The cells were then incubated with rabbit anti-ZO-1 monoclonal antibody (CST, USA) (1:100) or rabbit anti-RV VP6 polyclonal antibodies (CUSABIO, China) (1:50) for 2 h at room temperature, washed twice with PBS, and incubated with Cy3-conjugated goat anti-rabbit antibodies (Beyotime, China) (1:500) for 1 h at room temperature. In some experiments, the cells were also stained with FITC-conjugated goat anti-RV antibodies (Virostat, USA) (1:100) for 1 h at room temperature and followed by 5 µg/mL 2-(4-amidinophenyl)-6-indolecarbamidine dihydrochloride (DAPI) (Sigma-Aldrich, USA) staining for 10 min. […] Minimal post-processing (image cropping and annotations) was applied through Adobe Illustrator 2019 (Adobe Systems, USA) to ensure readability. […]
MA104, Caco-2, and HT-29 cells were mock-infected with PBS, infected with RV Wa or SA11 strains (MOI = 3), or treated with 1 µM C16-PAF (C16) for 1 h. […] After protein quantification with a BCA kit (Beyotime, China), the protein samples were mixed with 25 µL 5× SDS loading buffer (Beyotime, China), boiled at 100°C for 5 min, chilled on ice, vortexed for seconds, and centrifuged at 12,000 × g for 3 min at room temperature. […]

[2] = test system: HSP90α; details: targets the N-terminal of HSP90α; cited from earlier work
[3] = test system: Caco-2 cells; experiment: Cytotoxicity assay (CCK-8); assay type: cell-based, Human; details: Caco-2 cells, 24 h, CCK-8; read-out: CC50
Description: (§1) To evaluate the cytotoxicity of different HSP90 inhibitors in vitro, 10,000 MA104 cells, 30,000 Caco-2 cells, and 80,000 HT-29 cells in 100 µL complete DMEM medium were seeded in 96-well plates and cultured at 37°C and 5% CO2 for 24 h to reach about 100% confluence, and a cell-free control was also set. After removing the initial medium, 100 µL of complete DMEM medium containing the indicated concentrations of drugs was added to each well, and the plates were incubated at 37°C and 5% CO2. Twenty-four hours later, the drug-containing medium was replaced with 100 µL fresh complete DMEM medium plus 10 µL 5 mM CCK-8 reagent (Beyotime, China), and OD450 absorbance of each well was detected 3 h later using a microplate reader (Gene Company Limited, China). Relative cell viability rate = OD450 (drug-treated cells − cell-free control) / OD450 (0 µM drug-treated cells − cell-free control).
(§2) The 50% cytotoxic concentration (CC50) values were determined by nonlinear regression (curve fit) analysis in GraphPad Prism 9.0 (GraphPad Software). Dose-response data (drug concentrations as X-axis and normalized cell viability percentages as Y-axis) were fitted to a Dose-response Inhibition model ("[Inhibitor] vs. normalized response-Variable slope"). The curve was constrained to a bottom limit of 0% viability. The CC50 value was automatically calculated as the X-intercept at Y=50%. Model adequacy was validated using goodness-of-fit metrics (R²≥0.95), 95% confidence intervals, and residual distribution analysis. Final CC50 values were derived from three independent biological replicates and reported as mean ± SEM.

[4] = test system: HT-29 cells; experiment: Cytotoxicity assay (CCK-8); assay type: cell-based, Human; details: HT-29 cells, 24 h, CCK-8; read-out: CC50
Description: as §1, §2

## COc1cccc(-c2cc(F)ccc2[C@H]2Cc3nc(N)nc(C)c3C(=O)N2)n1 [NVP-HSP990]
[1]; 18 h, ZO-1 immunostaining
  structural disruption of tight junctions in RV infection: effectively restored
[1]; 20 h, WB
  expression of tight junction-associated proteins ZO-1, ZO-2, and claudin-1: facilitated the expression
[2]
  IC50: 0.0006 µM
[3]
  CC50: > 100 µM
[4]
  CC50: > 100 µM
